The subject of the assay is LPS-induced release of endogenous TNFα from human PBMCs from healthy donors. The assay is described as follows: ELISA-based TNFα release assay, LPS-induced, PBMCs from healthy donors. The class given is cell-based. The note with it: PBMC, Batimastat 10 μM, LPS 0.01 ng/ml, 2 hours. As to the method: In the following study, ELISA-based TNF& release assays were performed to analyze the inhibitory effects of the antibodies of the invention on LPS-induced release of endogenous TNF& from primary human material obtained from healthy donors using peripheral blood mononuclear cells (PBMCs).
In brief, on day 1, Nunc black MaxiSorp® 96-well plates (Thermo Fisher Scientific, USA) were coated overnight with 100 μl per well of mouse anti-human TNFα capture antibody (provided as part of the DuoSet ELISA kit) at 4 μg/ml TBS at 4° C. On day 2, the capture antibody solution was removed and MaxiSorp® plates were blocked with 300 μl per well of TBS, 1% BSA at room temperature for 3 hours. […] Using an infinite M1000 (Tecan Group, Switzerland) microplate reader, the fluorescence of each well was collected at an excitation wavelength of 435 nm and an emission wavelength of 555 nm.

A word on the inhibition: it is the relative decrease from the control value, in per cent. A high value points to a response far below the control.

The molecule `CNC(=O)[C@H](Cc1ccccc1)NC(=O)[C@H](CC(C)C)[C@H](CSc1cccs1)C(=O)NO` [Batimastat] returned an inhibition at 10 µM of 98.9%.

Source of the values: patent publication US12404345B2, “Humanized antibodies against iRHOM2” (SCIRHOM GMBH, priority 2021, dated 2025).
